Calls of active or inactive are those of the source.
Legend:
[1] = Intein inhibitors as potential Tuberculosis drugs, a cytotoxicity screen. [Related pubchem assays (depositor defined):AID2221, AID2223, AID434968, AID435010, AID449749, AID449750, AID489010]; assay type: functional
[2] = target: T1, Replicative DNA helicase DnaB (Mycobacterium tuberculosis, UniProt P9WMR3); assay: DnaB intein splicing inhibitors, dose response, biochemical, cell-free fluorescence (AID 449749); assay type: functional
T1 sequence (P9WMR3 whole entry): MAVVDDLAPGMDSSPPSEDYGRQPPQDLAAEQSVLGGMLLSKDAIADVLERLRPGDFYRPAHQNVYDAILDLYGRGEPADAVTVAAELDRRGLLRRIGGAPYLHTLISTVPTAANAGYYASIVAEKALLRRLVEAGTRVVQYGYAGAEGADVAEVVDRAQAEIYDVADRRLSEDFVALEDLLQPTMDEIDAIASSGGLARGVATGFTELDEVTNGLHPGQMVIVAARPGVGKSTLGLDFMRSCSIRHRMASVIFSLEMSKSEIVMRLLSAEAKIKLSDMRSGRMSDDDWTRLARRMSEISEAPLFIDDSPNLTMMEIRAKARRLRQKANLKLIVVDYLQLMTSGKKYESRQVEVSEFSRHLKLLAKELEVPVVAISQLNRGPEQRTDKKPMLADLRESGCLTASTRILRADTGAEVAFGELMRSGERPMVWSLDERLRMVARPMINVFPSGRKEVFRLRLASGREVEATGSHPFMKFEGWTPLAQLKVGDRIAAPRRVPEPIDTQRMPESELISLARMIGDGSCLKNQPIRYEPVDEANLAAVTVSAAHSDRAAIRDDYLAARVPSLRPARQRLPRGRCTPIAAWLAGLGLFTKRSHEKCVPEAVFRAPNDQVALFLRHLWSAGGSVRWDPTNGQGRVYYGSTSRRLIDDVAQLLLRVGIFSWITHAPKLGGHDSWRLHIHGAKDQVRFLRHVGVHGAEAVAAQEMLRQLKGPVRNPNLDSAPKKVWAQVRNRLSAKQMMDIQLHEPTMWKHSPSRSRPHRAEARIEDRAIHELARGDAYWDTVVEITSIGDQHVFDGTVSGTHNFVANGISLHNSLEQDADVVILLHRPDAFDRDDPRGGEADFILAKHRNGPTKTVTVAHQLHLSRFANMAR

HeLa = assay: Cytotoxicity counterscreen assay for transcriptional activators of heat shock protein 70 (Hsp70). [Related pubchem assays: 1203, 1252 ]; assay type: functional; settings: Homo sapiens;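 also: cells exposed to compound for 16 hours before readout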
[3] = general mammalian cell viability loss – activator set, cherry-pick, cytotoxicity control for miR-122 modulator project, dose response (AID 720690); assay type: functional, cell-based;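 also: HEK293T human cells scored for general mammalian cytotoxicity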
Protein RecA = target: T2, Protein RecA (Mycobacterium tuberculosis, UniProt P9WHJ3); assay: Fluorescence Cell-Free Homogeneous Dose Retest to Identify Inhibitors of RecA-Intein Splicing Activity. [Related pubchem assays (depositor defined):AID2097, AID2223, AID489010, AID492950]; assay type: functional
T2 sequence (P9WHJ3 whole entry): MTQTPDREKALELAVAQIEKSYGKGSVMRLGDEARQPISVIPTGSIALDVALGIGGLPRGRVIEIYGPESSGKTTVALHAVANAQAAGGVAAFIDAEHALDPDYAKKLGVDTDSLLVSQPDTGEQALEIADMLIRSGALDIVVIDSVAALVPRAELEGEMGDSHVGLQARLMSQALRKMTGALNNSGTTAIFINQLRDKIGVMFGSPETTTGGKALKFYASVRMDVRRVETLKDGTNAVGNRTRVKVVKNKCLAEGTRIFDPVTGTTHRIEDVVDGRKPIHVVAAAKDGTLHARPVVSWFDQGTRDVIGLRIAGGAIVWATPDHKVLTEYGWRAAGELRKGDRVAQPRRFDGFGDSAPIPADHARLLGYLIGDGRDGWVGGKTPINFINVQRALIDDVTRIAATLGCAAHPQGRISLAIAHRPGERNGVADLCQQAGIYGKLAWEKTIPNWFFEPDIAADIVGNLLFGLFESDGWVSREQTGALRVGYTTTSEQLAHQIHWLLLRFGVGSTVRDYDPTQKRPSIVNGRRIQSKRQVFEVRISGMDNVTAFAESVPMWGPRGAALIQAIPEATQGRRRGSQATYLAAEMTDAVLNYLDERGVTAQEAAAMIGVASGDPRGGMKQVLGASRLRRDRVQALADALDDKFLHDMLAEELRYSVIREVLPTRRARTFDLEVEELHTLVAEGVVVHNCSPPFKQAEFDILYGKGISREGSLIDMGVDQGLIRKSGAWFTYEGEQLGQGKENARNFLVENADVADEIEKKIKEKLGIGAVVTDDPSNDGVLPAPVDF

[4] = general mammalian cell viability loss – inhibitor set, cherry-pick, set 2, cytotoxicity control for miR-122 modulator project, dose response (AID 720697); assay type: functional, cell-based
INS1 = assay: INS-1E survival protection against cytokine death – cell-based, luminescence, retest, dose response (AID 449756); assay type: functional; settings: Rattus norvegicus;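 also: cell death triggered by IL-1 beta plus TNF-alpha plus IFN-gamma mixture; protective hits raise ATP signal compared with cytokine alone wells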
[5] = NIH-3T3 fibroblast cytotoxicity, dose response, cytotoxicity control, cell-based, fluorescence, Alamar Blue, secondary assay (AID 2327); assay type: functional;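 also: NIH-3T3 mouse fibroblasts cultured with fluconazole at 8 µg/mL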
[6] = Trypanosoma cruzi growth suppression in host cells – NIH3T3 host cells, beta-gal luminescence, confirmation (AID 2044); assay type: functional, cell-based;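 also: intracellular parasites grown in NIH/3T3 mouse fibroblasts as host cells; luminescent beta-galactosidase reporter signal from transgenic T. cruzi replicating inside host cells; inhibitors lower the luminescence signal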
[7] = NIH3T3 cell viability loss – ATP luminescence, mouse fibroblasts, counter-screen, dose response (AID 2010); assay type: functional, cell-based;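 also: cells exposed to compound for about 90 hours before reading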
[8] = loss of viability in HepG2 cells – cell-based, CellTiter-Glo, cherry-picked, cytotoxicity control for Shn3 inhibitor project, dose response (AID 624134); assay type: functional
CHO = CHO cell viability loss, potency – luminescence, cytotoxicity control for TLR9-MyD88 binding inhibitor project, dose response (AID 588339); assay type: functional, cell-based, hamster; settings: Cricetulus griseus;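 also: CHO cells stably coexpressing TLR9 and MyD88 fusions from primary screen; compound exposure lasted 48 hours before viability readout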
Beta Lactamase = Beta Lactamase (Pseudomonas aeruginosa, UniProt Q932Y6); assay: BLA reporter interference, concentration series – BLA reporter cells, FRET fluorescence, artefact control for TLR9-MyD88 binding inhibitor project, dose response (AID 588341); assay type: cell-based;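 also: cell based assay in CHO-K1 cells stably expressing beta-lactamase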
Beta Lactamase, sequence (Q932Y6 whole entry): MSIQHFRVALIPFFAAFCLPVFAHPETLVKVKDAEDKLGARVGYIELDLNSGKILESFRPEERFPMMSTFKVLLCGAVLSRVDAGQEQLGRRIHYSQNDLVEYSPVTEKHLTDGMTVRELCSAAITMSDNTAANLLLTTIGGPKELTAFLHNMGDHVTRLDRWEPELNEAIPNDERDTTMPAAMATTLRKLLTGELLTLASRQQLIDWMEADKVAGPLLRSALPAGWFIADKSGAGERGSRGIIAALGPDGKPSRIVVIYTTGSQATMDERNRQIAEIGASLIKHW

[9] = activation of miR-122 Renilla sensor silencing – cell-based, Huh7 psiCHECK-miR122, Renilla luciferase, cherry-picked, dose response (AID 651956); assay type: functional;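 also: huh7 hepatoma cells stably carrying a psiCHECK-2 miR-122 sensor plasmid; renilla luciferase signal reporting endogenous miR-122 activity after 48 h compound exposure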
[10] = target: Sphingosine 1-phosphate receptor 2 (Homo sapiens, UniProt O95136); assay: Dose Response Cell Based Assay for Antagonists of the S1P2 Receptor. [Related pubchem assays: 856, 736 ]; assay type: functional
Sphingosine 1-phosphate receptor 2, sequence (O95136 whole entry): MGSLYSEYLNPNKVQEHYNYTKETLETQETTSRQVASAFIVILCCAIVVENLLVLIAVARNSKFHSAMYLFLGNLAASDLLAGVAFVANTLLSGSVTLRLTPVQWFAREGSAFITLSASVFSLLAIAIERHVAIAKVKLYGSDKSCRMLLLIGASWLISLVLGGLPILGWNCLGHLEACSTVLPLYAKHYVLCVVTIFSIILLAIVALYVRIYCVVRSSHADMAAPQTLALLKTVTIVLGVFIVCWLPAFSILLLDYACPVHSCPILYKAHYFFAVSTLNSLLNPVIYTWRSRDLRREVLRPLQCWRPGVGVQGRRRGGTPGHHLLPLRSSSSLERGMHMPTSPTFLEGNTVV

[11] = reduction of Shn3 3'UTR-driven luciferase in osteoblasts – cell-based, Clone20 osteoblasts, firefly luciferase, cherry-picked, dose response (AID 624132); assay type: functional;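 also: firefly luciferase luminescence from reporter carrying the Shn3 3'UTR in osteoblasts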
[12] = Luminescent dose response cell-based high throughput screening assay for inhibitors of the Janus kinase 2 mutant JAK2V617F. [Related pubchem assays: 1446 (Primary screen.), 1521 (Confirmation assay.), 1486 (Counter screen.)]; assay type: functional
[13] = target: T3, Heat shock factor protein 1 (Mus musculus, UniProt P38532); assay: decrease of HSF1-responsive luciferase luminescence – cell-based, NIH3T3, dose retest, confirmation (AID 2382); assay type: functional;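 also: NIH3T3 fibroblasts with HSF1-driven luciferase reporter stressed by proteasome inhibitor MG132; luminescence from HSF1-driven luciferase expression after 8 hours of MG132 stress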
T3 sequence (P38532 whole entry): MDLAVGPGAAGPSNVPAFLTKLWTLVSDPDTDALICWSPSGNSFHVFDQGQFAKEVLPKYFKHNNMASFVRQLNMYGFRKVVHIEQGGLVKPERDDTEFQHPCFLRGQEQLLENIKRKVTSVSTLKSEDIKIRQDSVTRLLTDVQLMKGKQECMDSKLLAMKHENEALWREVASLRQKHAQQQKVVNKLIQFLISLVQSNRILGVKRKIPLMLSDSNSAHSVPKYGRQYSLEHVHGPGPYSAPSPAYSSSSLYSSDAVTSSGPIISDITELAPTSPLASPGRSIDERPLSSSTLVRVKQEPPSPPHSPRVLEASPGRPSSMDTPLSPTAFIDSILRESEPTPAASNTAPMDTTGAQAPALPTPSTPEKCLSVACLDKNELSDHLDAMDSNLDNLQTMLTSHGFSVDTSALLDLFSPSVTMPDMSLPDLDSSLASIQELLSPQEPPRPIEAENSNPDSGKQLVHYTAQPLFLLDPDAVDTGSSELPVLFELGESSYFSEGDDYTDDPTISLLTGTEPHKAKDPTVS

[14] = fluconazole-exposed Candida albicans growth modulators – fluorescence, retest, confirmation (AID 2467); assay type: functional, cell-based
[15] = non-specific 3'UTR reporter inhibition in Clone20-Shn3RL – cell-based, Renilla luciferase, cherry-picked, counter-screen for Shn3 inhibitor project, dose response (AID 624133); assay type: functional
Mucolipin-3 = Mucolipin-3 (Homo sapiens, UniProt Q8TDD5); assay: Dose response cell-based high-throughput screening assay for agonists of the transient receptor potential channel ML3 (TRPML3). [Related pubchem assays: 1526, 1424, 1448 ]; assay type: functional
Mucolipin-3, sequence (Q8TDD5 whole entry): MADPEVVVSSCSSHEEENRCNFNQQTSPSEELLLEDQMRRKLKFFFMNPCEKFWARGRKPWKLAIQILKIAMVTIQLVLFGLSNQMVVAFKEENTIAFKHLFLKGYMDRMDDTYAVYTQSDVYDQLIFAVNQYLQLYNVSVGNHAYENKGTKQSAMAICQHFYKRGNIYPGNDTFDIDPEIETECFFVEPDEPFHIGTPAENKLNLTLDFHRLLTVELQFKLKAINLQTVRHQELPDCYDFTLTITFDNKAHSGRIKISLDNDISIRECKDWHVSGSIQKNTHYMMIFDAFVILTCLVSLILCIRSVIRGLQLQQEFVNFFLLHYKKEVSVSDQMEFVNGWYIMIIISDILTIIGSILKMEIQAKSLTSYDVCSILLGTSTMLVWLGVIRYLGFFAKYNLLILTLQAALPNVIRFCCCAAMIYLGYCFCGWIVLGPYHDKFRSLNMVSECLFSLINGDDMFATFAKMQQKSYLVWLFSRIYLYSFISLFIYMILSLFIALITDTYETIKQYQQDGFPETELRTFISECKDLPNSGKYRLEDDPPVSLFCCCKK

Ion channel NompC = Ion channel NompC (Danio rerio, UniProt Q7T1G6); assay: Fluorescence counterscreen assay for TRPML3 agonists: dose response cell-based high-throughput screening assay to identify agonists of the transient receptor potential channel N1 (TRPN1). [Related pubchem assays: 1526, 1424, 1448 ]; assay type: functional
Ion channel NompC, sequence (Q7T1G6 whole entry): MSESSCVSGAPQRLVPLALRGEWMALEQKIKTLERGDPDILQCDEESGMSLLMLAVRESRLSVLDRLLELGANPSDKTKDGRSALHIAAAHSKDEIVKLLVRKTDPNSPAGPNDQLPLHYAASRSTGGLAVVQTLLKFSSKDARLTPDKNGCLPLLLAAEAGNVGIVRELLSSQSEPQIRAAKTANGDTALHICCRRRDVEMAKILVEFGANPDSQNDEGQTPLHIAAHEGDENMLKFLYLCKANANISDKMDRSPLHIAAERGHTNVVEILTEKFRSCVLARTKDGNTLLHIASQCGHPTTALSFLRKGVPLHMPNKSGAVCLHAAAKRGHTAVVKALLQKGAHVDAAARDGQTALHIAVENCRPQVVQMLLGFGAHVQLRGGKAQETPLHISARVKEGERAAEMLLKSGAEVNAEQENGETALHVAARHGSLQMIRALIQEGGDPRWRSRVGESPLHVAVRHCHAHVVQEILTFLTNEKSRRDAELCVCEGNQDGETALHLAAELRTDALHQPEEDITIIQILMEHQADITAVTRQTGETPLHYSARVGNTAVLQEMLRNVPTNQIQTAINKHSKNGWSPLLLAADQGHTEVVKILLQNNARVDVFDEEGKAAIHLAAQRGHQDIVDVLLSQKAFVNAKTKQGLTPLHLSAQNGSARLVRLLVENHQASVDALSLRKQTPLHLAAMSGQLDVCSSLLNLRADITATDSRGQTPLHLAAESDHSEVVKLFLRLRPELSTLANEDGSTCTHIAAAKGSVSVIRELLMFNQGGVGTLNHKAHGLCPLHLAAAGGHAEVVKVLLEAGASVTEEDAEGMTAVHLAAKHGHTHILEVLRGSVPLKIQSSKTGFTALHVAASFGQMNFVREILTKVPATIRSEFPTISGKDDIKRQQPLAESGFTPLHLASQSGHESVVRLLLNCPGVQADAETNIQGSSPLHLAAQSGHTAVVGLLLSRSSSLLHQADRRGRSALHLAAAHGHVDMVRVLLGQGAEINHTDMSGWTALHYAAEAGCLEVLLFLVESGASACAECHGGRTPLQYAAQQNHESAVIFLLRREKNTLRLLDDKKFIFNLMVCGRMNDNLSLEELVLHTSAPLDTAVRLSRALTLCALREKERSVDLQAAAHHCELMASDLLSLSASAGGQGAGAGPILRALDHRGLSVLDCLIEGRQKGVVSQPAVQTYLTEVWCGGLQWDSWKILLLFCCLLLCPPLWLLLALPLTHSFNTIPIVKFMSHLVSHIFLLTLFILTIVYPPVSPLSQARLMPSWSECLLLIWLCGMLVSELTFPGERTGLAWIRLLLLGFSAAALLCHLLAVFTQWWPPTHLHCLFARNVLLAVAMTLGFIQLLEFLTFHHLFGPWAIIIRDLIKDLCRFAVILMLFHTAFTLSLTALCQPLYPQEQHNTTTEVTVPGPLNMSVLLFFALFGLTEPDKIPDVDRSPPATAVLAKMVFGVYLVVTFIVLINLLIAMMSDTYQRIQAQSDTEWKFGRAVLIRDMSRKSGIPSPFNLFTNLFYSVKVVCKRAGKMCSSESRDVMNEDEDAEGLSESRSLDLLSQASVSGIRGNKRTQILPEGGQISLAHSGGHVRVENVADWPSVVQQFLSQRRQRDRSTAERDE

[16] = viability of HCT116 lacking mutant beta-catenin – cell-based, human colon tumor, dose response (AID 1045); assay type: functional;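 also: HCT116 colon tumor cells with beta catenin knocked out; cells exposed to compound for 60 hours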
[17] = target: T4, Sphingosine 1-phosphate receptor 4 (Homo sapiens, UniProt O95977); assay: Fluorescence dose response cell-based high throughput screening assay for antagonists of the Sphingosine 1-Phosphate Receptor 4 (S1P4). [Related pubchem assays: 1524 (Confirmation in triplicates.), 1510 (Primary screen.)]; assay type: functional
T4 sequence (O95977 whole entry): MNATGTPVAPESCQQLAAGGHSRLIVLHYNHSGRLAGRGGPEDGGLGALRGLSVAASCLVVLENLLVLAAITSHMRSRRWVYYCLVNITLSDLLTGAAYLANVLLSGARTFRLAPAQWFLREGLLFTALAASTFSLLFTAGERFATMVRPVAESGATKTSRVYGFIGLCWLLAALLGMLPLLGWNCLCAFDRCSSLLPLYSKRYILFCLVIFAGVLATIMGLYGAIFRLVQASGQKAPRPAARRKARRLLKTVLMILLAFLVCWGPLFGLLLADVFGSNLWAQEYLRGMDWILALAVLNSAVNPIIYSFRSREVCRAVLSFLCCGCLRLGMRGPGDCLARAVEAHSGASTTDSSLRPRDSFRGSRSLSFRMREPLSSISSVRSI

[18] = target: Sphingosine 1-phosphate receptor 1 (Homo sapiens, UniProt P21453); assay type: functional;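 also: Tango beta-arrestin reporter U2OS cells stimulated with S1P near its EC80; inhibitor potency meaning antagonism of receptor activation by the natural agonist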
Sphingosine 1-phosphate receptor 1, sequence (P21453 whole entry): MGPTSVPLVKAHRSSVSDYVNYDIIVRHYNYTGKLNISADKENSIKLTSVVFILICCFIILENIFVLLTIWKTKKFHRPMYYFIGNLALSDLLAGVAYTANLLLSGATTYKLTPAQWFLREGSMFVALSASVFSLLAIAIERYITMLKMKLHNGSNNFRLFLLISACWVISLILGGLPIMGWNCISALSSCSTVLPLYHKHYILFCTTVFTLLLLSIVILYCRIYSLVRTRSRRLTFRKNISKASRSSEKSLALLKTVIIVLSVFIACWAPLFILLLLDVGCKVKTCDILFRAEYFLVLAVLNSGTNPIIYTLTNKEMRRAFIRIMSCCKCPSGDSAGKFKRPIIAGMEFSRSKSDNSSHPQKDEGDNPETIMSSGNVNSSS

[19] = viability of PTEN-deleted HCT116 cells – cell-based, HCT116 PTEN knockout, dose response (AID 1047); assay type: functional;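 also: HCT116 colon tumor cells with PTEN knocked out; cells exposed to compound for 60 hours before readout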
[20] = target: T4, Sphingosine 1-phosphate receptor 4; assay: Late stage fluorescence dose response cell-based screening assay for antagonists of the Sphingosine 1-Phosphate Receptor 4 (S1P4). [Related pubchem assays: 1524 (Confirmation screen (S1P4 antagonists).), 1510 (Primary screen (S1P4 antagonists).), 1853 (Summary AID (S1P4 antagonists).), 1692 (Dose response screen (S1P4 antagonists).)]; assay type: functional

For `O=C(OCn1ncc(Cl)c(Cl)c1=O)c1ccccc1Cl`, the CC50 [1] was 5.38 µM (active), the AC50 [2] was 3.32 µM (active) and the CC50 (HeLa) was > 11 µM (not active). The AC50 [3] was 4.89 µM (active), the EC50 (Protein RecA) was 0.669 µM (active) and the AC50 [4] was 4.39 µM (active). The AC50 (INS1) was 5.37 µM (active), the EC50 [5] was 2.57 µM (inconclusive) and the EC50 [6] was 1.04 µM (active). The EC50 [7] was 1.07 µM (active), the AC50 [8] was 27.3 µM (active) and the IC50 (CHO) was 1.64 µM (active). The IC50 (Beta Lactamase) was > 49.8 µM (inactive), the AC50 [9] was 11.2 µM (active) and the IC50 [10] was 3.15 µM (active). For the same compound, the AC50 [11] was 3.56 µM (active), the IC50 [12] was 0.401 µM (active) and the EC50 [13] was 1.99 µM (active). For the same compound, the EC50 [14] was > 38 µM (not active) and the AC50 [15] was 3.56 µM (active).

For `CCN(CC)C(=S)SCC(=O)NC12CC3CC(CC(C3)C1)C2`, the EC50 (Mucolipin-3) was 14.7 µM (not active) and the EC50 (Ion channel NompC) was > 29.9 µM (not active).

For `O=C(OCn1ncc(Br)c(Br)c1=O)c1c(F)cccc1F`, the EC50 [16] was 1.82 µM (active), the IC50 [17] was 0.888 µM (active) and the IC50 [18] was 7.96 µM (active). The EC50 [19] was 1.78 µM (active) and the IC50 [20] was 88.8 µM (not active).

Reference: ChEMBL document CHEMBL1201862, “PubChem BioAssay data set” (2004)
